System: RA patients
Assay: [HDL] determination, Study 1 (RA patients, add-on to MTX)
Format: in vivo, human
Experimental: Double-blind, placebo-controlled add on study in subjects with moderately to severely active RA who have an inadequate response to methotrexate (MTX) (oral or parenteral).
595 subjects randomized to one of 6 dose regimens of Compound 1 (dosed as a [Compound 1:HCl:3H2O]) (3 dose levels administered either once or twice daily) or placebo on top of each subject's stable dose of MTX.
Compound 1 (dosed as a [Compound 1:HCl:3H2O]) is dosed for twelve weeks once daily (q.d.) (50 mg, 100 mg or 200 mg) or twice daily (b.i.d.) (25 mg, 50 mg or 100 mg); or placebo.
At Week 12, the subjects on placebo who have not achieved 20% improvement in swollen joint count (SJC66) and tender joint count (TJC68) are re-randomized automatically to receive Compound 1 (dosed as a [Compound 1:HCl:3H2O]) either at 100 mg q.d. or 50 mg b.i.d. doses in a blinded fashion; subjects on 50 mg q.d. who have not achieved 20% improvement in SJC66 and TJC68 will be assigned to 100 mg q.d. and subjects on 25 mg b.i.d. that have not achieved a 20% improvement in SJC66 and TJC68 will be assigned to 50 mg b.i.d. Subjects who switch treatment at week 12 are handled as if they discontinued at week 12 for the purpose of statistical analysis, whereas subjects in the other groups will maintain their randomized treatment until Week 24.
This assay relies on a homogeneous enzymatic colorimetric test. In the presence of magnesium ions, dextran sulfate selectively forms water-soluble complexes with LDL, VLDL and chylomicrons which are resistant to PEG-modified enzymes.
The cholesterol concentration of [HDL]-cholesterol is determined enzymatically by cholesterol esterase and cholesterol oxidase coupled with PEG to the amino groups (approx. 40%).
In the presence of peroxidase, the hydrogen peroxide generated reacts with 4-amino-antipyrine and Sodium N-(2-hydroxy-3-sulfopropyl)-3,5-dimethoxyaniline (HSDA) to form a purple-blue dye. The color intensity of this dye is directly proportional to the cholesterol concentration and is measured photometrically.
Human serum and plasma samples [HDL] determination was done on a Roche/Hitachi Cobas c 701/702 system which automatically calculate the analyte concentration of each sample. Samples containing precipitates are centrifuged before performing the assay.

[1] = continued 200 mg q.d. (N = 86), week 4
[2] = continued 200 mg q.d. (N = 86), week 8
[3] = continued 200 mg q.d. (N = 86), week 12
[4] = continued 200 mg q.d. (N = 86), week 16
[5] = continued 200 mg q.d. (N = 86), week 20
[6] = continued 200 mg q.d. (N = 86), week 24
[7] = from 25 mg b.i.d. to 50 mg b.i.d at 12 weeks (N = 17), week 1
[8] = from 25 mg b.i.d. to 50 mg b.i.d at 12 weeks (N = 17), week 2
[9] = from 25 mg b.i.d. to 50 mg b.i.d at 12 weeks (N = 17), week 4
[10] = from 25 mg b.i.d. to 50 mg b.i.d at 12 weeks (N = 17), week 8
[11] = from 25 mg b.i.d. to 50 mg b.i.d at 12 weeks (N = 17), week 12
[12] = from 25 mg b.i.d. to 50 mg b.i.d at 12 weeks (N = 17), week 24
[13] = from 50 mg q.d. to 100 mg q.d. at 12 weeks (N = 19), week 1
[14] = from 50 mg q.d. to 100 mg q.d. at 12 weeks (N = 19), week 2
[15] = from 50 mg q.d. to 100 mg q.d. at 12 weeks (N = 19), week 4
[16] = from 50 mg q.d. to 100 mg q.d. at 12 weeks (N = 19), week 8
[17] = from 50 mg q.d. to 100 mg q.d. at 12 weeks (N = 19), week 12
[18] = from 50 mg q.d. to 100 mg q.d. at 12 weeks (N = 19), week 16
[19] = from 50 mg q.d. to 100 mg q.d. at 12 weeks (N = 19), week 20
[20] = from 50 mg q.d. to 100 mg q.d. at 12 weeks (N = 19), week 24
[21] = placebo switched to 50 mg b.i.d at week 12 (N = 15), week 16
[22] = placebo switched to 50 mg b.i.d at week 12 (N = 15), week 20
[23] = placebo switched to 50 mg b.i.d at week 12 (N = 15), week 24

For `O=C(Nc1nc2cccc(-c3ccc(CN4CCS(=O)(=O)CC4)cc3)n2n1)C1CC1` [Compound 1, cyclopropanecarboxylic acid {5-[4-(1,1-dioxo-thiomorpholin-4-ylmethyl)-phenyl]-[1,2,4]triazolo[1,5-a]pyridin-2yl}-amide], the “[HDL] Mean percentage CFB - 24 weeks results” value (from here on “[HDL] Mean percentage CFB”) [1] was 19.85%, the “[HDL] Median CFB - 24 weeks results” value [1] was 0.25 mmol/L and the “[HDL] Mean CFB - 24 weeks results” value [2] was 0.29 mmol/L. The “[HDL] Mean percentage CFB” value [2] was 21.85%, the “[HDL] Median CFB - 24 weeks results” value [2] was 0.30 mmol/L and the “[HDL] Mean CFB - 24 weeks results” value [3] was 0.27 mmol/L. The “[HDL] Mean percentage CFB” value [3] was 21.24%, the “[HDL] Median CFB - 24 weeks results” value [3] was 0.26 mmol/L and the “[HDL] Mean CFB - 24 weeks results” value [4] was 0.27 mmol/L. For the same compound, the “[HDL] Mean percentage CFB” value [4] was 21.14%, the “[HDL] Median CFB - 24 weeks results” value [4] was 0.23 mmol/L and the “[HDL] Mean CFB - 24 weeks results” value [5] was 0.30 mmol/L. For the same compound, the “[HDL] Mean percentage CFB” value [5] was 24.27%, the “[HDL] Median CFB - 24 weeks results” value [5] was 0.30 mmol/L and the “[HDL] Mean CFB - 24 weeks results” value [6] was 0.26 mmol/L. The “[HDL] Mean percentage CFB” value [6] was 20.78%, the “[HDL] Median CFB - 24 weeks results” value [6] was 0.25 mmol/L and the “[HDL] Mean CFB - 24 weeks results” value [7] was -0.05 mmol/L. The “[HDL] Mean percentage CFB” value [7] was −1.35%, the “[HDL] Median CFB - 24 weeks results” value [7] was -0.01 mmol/L and the “[HDL] Mean CFB - 24 weeks results” value [8] was 0.03 mmol/L. The “[HDL] Mean percentage CFB” value [8] was 4.08%, the “[HDL] Median CFB - 24 weeks results” value [8] was 0.05 mmol/L and the “[HDL] Mean CFB - 24 weeks results” value [9] was -0.01 mmol/L. For the same compound, the “[HDL] Mean percentage CFB” value [9] was 1.09%, the “[HDL] Median CFB - 24 weeks results” value [9] was 0.00 mmol/L and the “[HDL] Mean CFB - 24 weeks results” value [10] was -0.02 mmol/L. The “[HDL] Mean percentage CFB” value [10] was 0.59%, the “[HDL] Median CFB - 24 weeks results” value [10] was 0.05 mmol/L and the “[HDL] Mean CFB - 24 weeks results” value [11] was 0.04 mmol/L. For the same compound, the “[HDL] Mean percentage CFB” value [11] was 5.55%, the “[HDL] Median CFB - 24 weeks results” value [11] was 0.00 mmol/L and the “[HDL] Mean percentage CFB” value (from 25 mg b.i.d. to 50 mg b.i.d at 12 weeks (N = 17), week 16) was 7.37%. For the same compound, the “[HDL] Mean percentage CFB” value (from 25 mg b.i.d. to 50 mg b.i.d at 12 weeks (N = 17), week 20) was 1.50%, the “[HDL] Mean CFB - 24 weeks results” value [12] was 0.10 mmol/L and the “[HDL] Mean percentage CFB” value [12] was 8.10%. The “[HDL] Median CFB - 24 weeks results” value [12] was 0.17 mmol/L, the “[HDL] Mean CFB - 24 weeks results” value [13] was 0.02 mmol/L and the “[HDL] Mean percentage CFB” value [13] was 2.29%. The “[HDL] Median CFB - 24 weeks results” value [13] was 0.00 mmol/L, the “[HDL] Mean CFB - 24 weeks results” value [14] was 0.10 mmol/L and the “[HDL] Mean percentage CFB” value [14] was 6.63%. The “[HDL] Median CFB - 24 weeks results” value [14] was 0.07 mmol/L, the “[HDL] Mean CFB - 24 weeks results” value [15] was 0.07 mmol/L and the “[HDL] Mean percentage CFB” value [15] was 5.26%. For the same compound, the “[HDL] Median CFB - 24 weeks results” value [15] was 0.06 mmol/L, the “[HDL] Mean CFB - 24 weeks results” value [16] was 0.05 mmol/L and the “[HDL] Mean percentage CFB” value [16] was 5.77%. The “[HDL] Median CFB - 24 weeks results” value [16] was 0.09 mmol/L, the “[HDL] Mean CFB - 24 weeks results” value [17] was -0.02 mmol/L and the “[HDL] Mean percentage CFB” value [17] was 2.41%. For the same compound, the “[HDL] Median CFB - 24 weeks results” value [17] was -0.05 mmol/L, the “[HDL] Mean CFB - 24 weeks results” value [18] was 0.18 mmol/L and the “[HDL] Mean percentage CFB” value [18] was 11.43%. The “[HDL] Median CFB - 24 weeks results” value [18] was 0.15 mmol/L, the “[HDL] Mean CFB - 24 weeks results” value [19] was 0.13 mmol/L and the “[HDL] Mean percentage CFB” value [19] was 8.89%. The “[HDL] Median CFB - 24 weeks results” value [19] was 0.20 mmol/L, the “[HDL] Mean CFB - 24 weeks results” value [20] was 0.11 mmol/L and the “[HDL] Mean percentage CFB” value [20] was 8.29%. For the same compound, the “[HDL] Median CFB - 24 weeks results” value [20] was 0.11 mmol/L, the “[HDL] Mean CFB - 24 weeks results” value [21] was 0.08 mmol/L and the “[HDL] Mean percentage CFB” value [21] was 10.96%. The “[HDL] Median CFB - 24 weeks results” value [21] was 0.18 mmol/L, the “[HDL] Mean CFB - 24 weeks results” value [22] was 0.10 mmol/L and the “[HDL] Mean percentage CFB” value [22] was 12.63%. For the same compound, the “[HDL] Median CFB - 24 weeks results” value [22] was 0.21 mmol/L, the “[HDL] Mean CFB - 24 weeks results” value [23] was 0.10 mmol/L and the “[HDL] Mean percentage CFB” value [23] was 10.63%. For the same compound, the “[HDL] Median CFB - 24 weeks results” value [23] was 0.10 mmol/L, the “[HDL] Mean percentage CFB” value (placebo switched to 100 mg q.d. at week 12 (N = 15), week 16) was −0.14% and the “[HDL] Mean percentage CFB” value (placebo switched to 100 mg q.d. at week 12 (N = 15), week 20) was 0.95%. The “[HDL] Mean percentage CFB” value (placebo switched to 100 mg q.d. at week 12 (N = 15), week 24) was 0.14%.
